From PubChem BioAssay (NCI)
Where “and” joins values, the source holds several entries; their conditions need not be identical. Equal entries are not always repeated.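 Tested at 5 concentrations; 48 h exposure; 96-well plates; endpoints linearly interpolated, else capped at highest concentration. At the GI50, growth is halved. TGI denotes the concentration required for complete inhibition of growth.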

Assays:
Assay in all cases: growth of human tumour cells (NCI), 48 h
M19-MEL melanoma = test system: M19-MEL melanoma
SNB-78 CNS = test system: SNB-78 CNS
KM20L2 colon = test system: KM20L2 colon
XF 498 CNS = test system: XF 498 CNS
HOP-18 NSCLC = test system: HOP-18 NSCLC
DU-145 prostate = test system: DU-145 prostate
MDA-MB-435 = test system: MDA-MB-435
NCI/ADR-RES ovarian = test system: NCI/ADR-RES ovarian
HS 578T breast = test system: HS 578T breast
T-47D breast = test system: T-47D breast

| SMILES | TGI (M19-MEL melanoma) [µM] | TGI (SNB-78 CNS) [µM] | TGI (KM20L2 colon) [µM] | TGI (XF 498 CNS) [µM] | TGI (HOP-18 NSCLC) [µM] | also measured |
| --- | --- | --- | --- | --- | --- | --- |
| O=c1c2cc(Br)ccc2nc(CCl)n1-c1ccc(O)c([N+](=O)[O-])c1 | 36.2 | 50.3 | > 100 | 29 |  |  |
| Cc1nc(C(N)=S)sc1C(=O)/C=C/c1c(O)ccc2ccccc12 | 19 | > 100 | > 100 | > 100 | > 100 |  |
| CCOC(=O)C1SC(=Nc2ccc(Cl)cc2)N=C1C (centres undefined) | 33 | 89.3 | 33.4 | 34.2 | 42.5 |  |
| O=[N+]([O-])c1ccc(Sc2c3ccccc3nc3cc(Cl)ccc23)cc1 | > 100 |  | > 100 | 99.6 | > 100 | GI50 (M19-MEL melanoma): > 100 µM; GI50 (HOP-18 NSCLC): > 100 µM; GI50 (KM20L2 colon): > 100 µM |
| CCOC(=O)NC(=O)c1cn(CCN2CCN(C(=O)CCCCCCCCCCC(=O)N3CCN(CCn4cc(C(=O)NC(=O)OCC)c(=O)[nH]c4=O)CC3)CC2)c(=O)[nH]c1=O | > 100 |  |  | > 100 | > 100 |  |
| CSc1nnc(COc2ccc(Cl)cc2)o1 | > 100 | > 100 | > 100 | > 100 |  |  |
| COc1ccc(/C(=N\NC(=S)NN)C(c2ccc(OC)cc2)C2C(=O)Oc3ccccc32)cc1 (centres undefined) | > 100 | > 100 | > 100 | > 100 | > 100 | GI50 (M19-MEL melanoma): > 100 µM; GI50 (SNB-78 CNS): > 100 µM; GI50 (HOP-18 NSCLC): > 100 µM; GI50 (KM20L2 colon): > 100 µM; GI50 (XF 498 CNS): > 100 µM |
| O=c1oc2ccccc2[n+]([O-])c1-c1ccccc1 | > 100 | > 100 | > 100 | > 100 | > 100 |  |
| CCCCN(CC)CC(C(C)=O)c1c(O)c2ccccc2oc1=O (centres undefined) | > 100 | > 100 | > 100 | > 100 | > 100 |  |
| C=C(C)C1C/C=C(/C)CCCC2(CCC3=C(CC(C(=C)C)C/C=C(/C)CCC3)O2)C(=O)C1 (centres undefined) | > 100 | > 100 | > 100 | > 100 | > 100 |  |
| Cc1ccccc1C(=O)N1CCN(C(=O)c2ccccc2C)CC1 | > 100 | > 100 | > 100 | > 100 | > 100 |  |
| CCCCN(CCCC)C(=O)/C(CC(=O)c1cccc2ccccc12)=N\NC(=O)c1cc2ccccc2cc1O | > 100 | 99.7 | 51.3 | 88.1 |  |  |
| CCOC(=O)C(NC(=O)c1nc[nH]c1[N+](=O)[O-])C(C)C (centres undefined) | > 100 |  |  | 93.2 |  |  |
| CC(C)(C)c1cc(C=C(C#N)C#N)cc(C(C)(C)C)c1O |  |  | 73.2 | 3.13 |  | GI50 (DU-145 prostate): 0.0894 µM; TGI (DU-145 prostate): 18.5 µM and 56.8 µM; GI50 (MDA-MB-435): 0.252 µM; TGI (MDA-MB-435): 29.9 µM and 12.4 µM; GI50 (NCI/ADR-RES ovarian): 0.0629 µM; TGI (NCI/ADR-RES ovarian): 15.1 µM and 41.5 µM; GI50 (HS 578T breast): 0.133 µM; TGI (HS 578T breast): 22.7 µM and 4.49 µM; GI50 (T-47D breast): 0.0679 µM; TGI (T-47D breast): 0.645 µM and 5.07 µM |
| CC(=O)N1CCC2(c3ccccc3N(C(C)=O)C2c2ccc(O)cc2)C1C(=O)O (centres undefined) | > 100 | > 100 | > 100 | > 100 | > 100 |  |
| Cc1cc(N(CCC#N)CCC#N)ccc1/C=C(\NC(=O)/C=C/c1ccccc1)C(=O)NN | > 100 | > 100 | > 100 | > 100 |  | TGI (DU-145 prostate): > 100 µM; TGI (MDA-MB-435): > 100 µM; TGI (NCI/ADR-RES ovarian): > 100 µM; TGI (HS 578T breast): 77.5 µM; TGI (T-47D breast): > 100 µM |

| SMILES | TGI (M19-MEL melanoma) [µM] | TGI (SNB-78 CNS) [µM] | TGI (KM20L2 colon) [µM] | TGI (XF 498 CNS) [µM] | TGI (HOP-18 NSCLC) [µM] | also measured |
| --- | --- | --- | --- | --- | --- | --- |
| O=[N+]([O-])c1ccc(-c2ccc(-c3csc(Nc4ccccc4)n3)o2)cc1 | > 81.6 | 38.4 | 44.9 | 32.4 | 29.4 |  |
| CSC(=S)N/N=C/c1nccc2ccccc12 | > 33.6 | 63.6 | > 27.6 | 16.4 | 9.78 |  |
| C/C(=N\NC(=O)CC#N)c1c(O)cc(C)oc1=O | > 100 | > 100 | > 100 |  | > 100 |  |
| Cc1c(C(=O)O)oc2ccc([N+](=O)[O-])cc12 | > 100 | > 100 | > 100 | > 100 | > 100 |  |
| N/N=C1\C(=O)N(CCc2ccccc2)C(=O)C1C(=O)NCCc1ccccc1 (centres undefined) | > 100 | > 100 | > 100 | > 100 |  |  |
| O=C(/C=C/c1ccccc1)c1ccc(NCc2nc3ccccc3[nH]2)cc1 | 14.7 | 20.7 | 9.06 | 20.5 | 17.6 |  |
| Cc1ccccc1NC(=O)C1C(=O)N(c2ccccc2C)C(=O)/C1=N\NC(N)=S (centres undefined) |  |  | > 100 | > 100 |  |  |
| C=CC(OCC)(OCC)OCC | > 100 | > 100 | > 100 | > 100 | > 100 |  |
| CCOC(=O)c1cc2c3c(c(O)c(OC)c2s1)N(C(=O)c1cc2c4c(c(O)c(OC)c2s1)N(C(C)=O)CC4)CC3 | > 100 | > 100 | > 100 | 67.8 | > 100 |  |
| Cc1c2ccccc2cc2ccc3oc([N+](=O)[O-])cc3c12 | > 100 | > 100 | > 100 | > 100 | 62.8 |  |
| NC(=S)NN/C=C(\C=Nc1ccccc1)[N+](=O)[O-] | > 100 |  | > 100 | > 100 |  |  |
| CSC1=Nc2ccccc2N=C(c2ccc(Cl)cc2)C1 | > 100 | > 100 | > 100 | > 100 | > 100 |  |
| Cn1c2c(c3ccccc31)CCN(CCN1CCN(c3cccc(Cl)c3)CC1)C2=O | > 100 |  | > 100 | 34.5 | > 100 |  |
| CCNC(=O)COc1ccc(Cl)cc1Cl | > 100 | > 100 | > 100 |  | > 100 |  |
| CC(C)(C)C(=O)[CH-]C(=O)C(C)(C)C.CC(C)(C)C(=O)[CH-]C(=O)C(C)(C)C.CN(C)c1ccc([O-])cc1.CN(C)c1ccc([O-])cc1.[Ti+4] | > 100 | > 100 | > 100 |  | > 100 | GI50 (M19-MEL melanoma): 79.2 µM; GI50 (SNB-78 CNS): > 100 µM; GI50 (HOP-18 NSCLC): > 100 µM; GI50 (KM20L2 colon): > 100 µM |
